{
  "source": "PubChem BioAssay AID212",
  "about": "(DTP/NCI, 2004)",
  "system": "BDF1 mice, colon carcinoma 38 sc, T/C %",
  "experiment": "NCI In Vivo Anticancer Drug Screen. Data for tumor model Colon Carcinoma 38 (subcutaneous) in B6D2F1 (BDF1) mice",
  "settings": "endpoint: median tumor weight (est.), higher = larger tumour",
  "outline": "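Ratio of survival or tumor size, compound-treated animals relative to vehicle controls, in tumor-bearing mice.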",
  "key": {"[1]": {"settings": "dose: 12.5 mg/kg/injection, schedule: Q07DX002 (ip), vehicle: saline with Tween-80"}, "[2]": {"settings": "dose: 50.0 mg/kg/injection, schedule: Q07DX002 (ip), vehicle: saline with Tween-80"}, "[3]": {"settings": "dose: 200.0 mg/kg/injection, schedule: Q07DX002 (ip), vehicle: saline with Tween-80"}, "[4]": {"settings": "dose: 25.0 mg/kg/injection, schedule: Q07DX002 (ip), vehicle: saline with Tween-80"}, "[5]": {"settings": "dose: 50.0 mg/kg/injection, schedule: Q07DX002 (ip), vehicle: saline"}, "[6]": {"settings": "dose: 100.0 mg/kg/injection, schedule: Q07DX002 (ip), vehicle: saline"}, "[7]": {"settings": "dose: 400.0 mg/kg/injection, schedule: Q07DX002 (ip), vehicle: saline"}},
  "note": "Several values for one entry are separate records, joined by “and”; a condition that tells them apart may be missing. Equal values may be shown once. Inconclusive results are not listed.",
  "data": [
    {"compound": "CCCCCCCCCCCCCCCCCC(=O)Nc1ccn(C2OC(CO)C(O)C2O)c(=O)n1", "note": "(stereo unspecified)", "values": [
      {"measurement": "T/C", "setting": "[1]", "value": "99 % of control"},
      {"measurement": "T/C", "setting": "[2]", "value": "35 % of control and 59 % of control"},
      {"measurement": "T/C", "setting": "dose: 100.0 mg/kg/injection, schedule: Q07DX002 (ip), vehicle: saline with Tween-80", "value": "25 % of control"},
      {"measurement": "T/C", "setting": "[3]", "value": "4 % of control"}
    ]},
    {"compound": "NC(=O)Nc1cc(NC(N)=O)cc(N(CCCl)CCCl)c1", "values": [
      {"measurement": "T/C", "setting": "dose: 10.0 mg/kg/injection, schedule: Q07DX002 (ip), vehicle: Klucel (hydroxypropylcellulose) (HPC)", "value": "89 % of control"},
      {"measurement": "T/C", "setting": "dose: 20.0 mg/kg/injection, schedule: Q07DX002 (ip), vehicle: Klucel (hydroxypropylcellulose) (HPC)", "value": "68 % of control"},
      {"measurement": "T/C", "setting": "dose: 40.0 mg/kg/injection, schedule: Q07DX002 (ip), vehicle: Klucel (hydroxypropylcellulose) (HPC)", "value": "96 % of control"}
    ]},
    {"compound": "COc1cc2c(c(OC)c1OC)-c1c(cc3c(c1OC)OCO3)CC(C)C(C)(O)C2OC(=O)c1ccccc1", "note": "(stereo unspecified)", "values": [
      {"measurement": "T/C", "setting": "dose: 50.0 mg/kg/injection, schedule: Q07DX002 (ip), vehicle: saline + Tween-80 + alcohol", "value": "165 % of control"},
      {"measurement": "T/C", "setting": "dose: 100.0 mg/kg/injection, schedule: Q07DX002 (ip), vehicle: saline + Tween-80 + alcohol", "value": "103 % of control"},
      {"measurement": "T/C", "setting": "dose: 200.0 mg/kg/injection, schedule: Q07DX002 (ip), vehicle: saline + Tween-80 + alcohol", "value": "106 % of control"},
      {"measurement": "T/C", "setting": "dose: 400.0 mg/kg/injection, schedule: Q07DX002 (ip), vehicle: saline + Tween-80 + alcohol", "value": "211 % of control"},
      {"measurement": "T/C", "setting": "dose: 800.0 mg/kg/injection, schedule: Q07DX002 (ip), vehicle: saline + Tween-80 + alcohol", "value": "111 % of control"}
    ]},
    {"compound": "Cc1cc(N(CC(C)Br)CC(C)Br)ccc1N=Nc1ccccc1C(=O)O", "note": "(stereo unspecified)", "values": [
      {"measurement": "T/C", "setting": "dose: 1.56 mg/kg/injection, schedule: Q07DX002 (ip), vehicle: saline with Tween-80", "value": "87 % of control and 96 % of control"},
      {"measurement": "T/C", "setting": "dose: 6.25 mg/kg/injection, schedule: Q07DX002 (ip), vehicle: saline with Tween-80", "value": "85 % of control"},
      {"measurement": "T/C", "setting": "[1]", "value": "95 % of control and 102 % of control"},
      {"measurement": "T/C", "setting": "[4]", "value": "73 % of control and 86 % of control"}
    ]},
    {"compound": "[N-]=[N+]=CC(=O)CCC(N)C(=O)O", "note": "(stereo unspecified)", "values": [
      {"measurement": "T/C", "setting": "dose: 0.78 mg/kg/injection, schedule: Q07DX003 (ip), vehicle: saline", "value": "57 % of control"},
      {"measurement": "T/C", "setting": "dose: 1.56 mg/kg/injection, schedule: Q07DX003 (ip), vehicle: saline", "value": "48 % of control"},
      {"measurement": "T/C", "setting": "dose: 3.13 mg/kg/injection, schedule: Q07DX003 (ip), vehicle: saline", "value": "73 % of control"},
      {"measurement": "T/C", "setting": "dose: 50.0 mg/kg/injection, schedule: Q07DX003 (ip), vehicle: saline", "value": "10 % of control"}
    ]},
    {"compound": "Nc1nc(-c2cccc3ccccc23)cc2ccccc12", "values": [
      {"measurement": "T/C", "setting": "[4]", "value": "108 % of control"},
      {"measurement": "T/C", "setting": "[2]", "value": "123 % of control"},
      {"measurement": "T/C", "setting": "[3]", "value": "77 % of control"},
      {"measurement": "T/C", "setting": "dose: 800.0 mg/kg/injection, schedule: Q07DX002 (ip), vehicle: saline with Tween-80", "value": "108 % of control"}
    ]},
    {"compound": "Cc1cc(Nc2ccc3c(c2)OCO3)c2cc3c(cc2n1)OCO3", "values": [
      {"measurement": "T/C", "setting": "dose: 50.0 mg/kg/injection, schedule: Q07DX002 (ip), vehicle: Klucel (hydroxypropylcellulose) (HPC)", "value": "86 % of control"},
      {"measurement": "T/C", "setting": "dose: 100.0 mg/kg/injection, schedule: Q07DX002 (ip), vehicle: Klucel (hydroxypropylcellulose) (HPC)", "value": "85 % of control"},
      {"measurement": "T/C", "setting": "dose: 200.0 mg/kg/injection, schedule: Q07DX002 (ip), vehicle: Klucel (hydroxypropylcellulose) (HPC)", "value": "36 % of control"}
    ]},
    {"compound": "O=c1ncccn1[C@@H]1O[C@H](CO)[C@H](O)C1O", "note": "(stereo partly specified)", "values": [
      {"measurement": "T/C", "setting": "[5]", "value": "61 % of control and 82 % of control"},
      {"measurement": "T/C", "setting": "[6]", "value": "65 % of control and 75 % of control"},
      {"measurement": "T/C", "setting": "dose: 200.0 mg/kg/injection, schedule: Q07DX002 (ip), vehicle: saline", "value": "66 % of control and 84 % of control"},
      {"measurement": "T/C", "setting": "[7]", "value": "62 % of control and 66 % of control"},
      {"measurement": "T/C", "setting": "dose: 800.0 mg/kg/injection, schedule: Q07DX002 (ip), vehicle: saline", "value": "67 % of control and 74 % of control"}
    ]},
    {"compound": "COc1ccc(/C=C/C(=O)c2cc(C(=O)O)c(OC)cc2OC)cc1OC", "values": [
      {"measurement": "T/C", "setting": "dose: 12.5 mg/kg/injection, schedule: Q07DX002 (ip), vehicle: saline", "value": "94 % of control and 103 % of control"},
      {"measurement": "T/C", "setting": "dose: 25.0 mg/kg/injection, schedule: Q07DX002 (ip), vehicle: saline", "value": "88 % of control and 94 % of control"},
      {"measurement": "T/C", "setting": "[5]", "value": "114 % of control and 124 % of control"},
      {"measurement": "T/C", "setting": "[6]", "value": "88 % of control and 96 % of control"},
      {"measurement": "T/C", "setting": "[7]", "value": "93 % of control and 103 % of control"}
    ]},
    {"compound": "CC[C@](C)(O)C(=O)O[C@H]1C(=O)O[C@@H]2C[C@H]3C(C)=CC(=O)[C@@H](O)[C@]3(C)[C@H]3[C@@]4(O)OC[C@]32[C@@H]1[C@@H](C)[C@H]4O", "values": [
      {"measurement": "T/C", "setting": "dose: 0.13 mg/kg/injection, schedule: Q07DX002 (ip), vehicle: saline with Tween-80", "value": "91 % of control"},
      {"measurement": "T/C", "setting": "dose: 0.25 mg/kg/injection, schedule: Q07DX002 (ip), vehicle: saline with Tween-80", "value": "90 % of control"},
      {"measurement": "T/C", "setting": "dose: 0.5 mg/kg/injection, schedule: Q07DX002 (ip), vehicle: saline with Tween-80", "value": "60 % of control"},
      {"measurement": "T/C", "setting": "dose: 1.0 mg/kg/injection, schedule: Q07DX002 (ip), vehicle: saline with Tween-80", "value": "62 % of control"},
      {"measurement": "T/C", "setting": "dose: 2.0 mg/kg/injection, schedule: Q07DX002 (ip), vehicle: saline with Tween-80", "value": "47 % of control"}
    ]},
    {"compound": "COc1cc2c(cc1O)C1C(O)C(O)C=C3CCN(C2)C31", "note": "(stereo unspecified)", "values": [
      {"measurement": "T/C", "setting": "dose: 4.0 mg/kg/injection, schedule: Q07DX002 (ip), vehicle: saline + alcohol", "value": "105 % of control"},
      {"measurement": "T/C", "setting": "dose: 8.0 mg/kg/injection, schedule: Q07DX002 (ip), vehicle: saline + alcohol", "value": "79 % of control"},
      {"measurement": "T/C", "setting": "dose: 16.0 mg/kg/injection, schedule: Q07DX002 (ip), vehicle: saline + alcohol", "value": "105 % of control"},
      {"measurement": "T/C", "setting": "dose: 32.0 mg/kg/injection, schedule: Q07DX002 (ip), vehicle: saline + alcohol", "value": "73 % of control"}
    ]}
  ]
}
